Measured values from US8895585B2, “Nicotinamide derivative or salt thereof” (FUJIFILM Corporation, priority 2010, dated 2014).
Like-named read-outs stand apart in the source and are kept apart here.

Target: T1, glutathione S-transferase (GST)-fused full-length human Syk protein (Homo sapiens, UniProt P43405)
T1 construct: (GST)-fused full-length human Syk protein; GST (glutathione S-transferase); purchased Carna Biosciences
Experiment: Syk enzyme assay
Type: biochemical
Method in brief: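 Baculovirus-expressed enzyme (1.2 ng) was preincubated with compound in HEPES pH 7.0/MgCl2/DTT buffer, 2 min shaking then 13 min at room temperature. Biotin-EDPDYEWPSA-NH2 (0.4 μM final) and ATP (27 μM final) were added for 40 min at room temperature. EDTA stop, streptavidin-XL/PT66-K TR-FRET at 615/665 nm gave IC50.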

[1] = read-out: Syk-inhibitory activity (IC50)
[2] = Syk enzyme assay, Test Example 1, read-out: IC50 of Syk-inhibitory activity

SMILES | IC50 [1] [nM] | IC50 [2] [nM]
NC(=O)c1cc(F)c(N[C@@H]2CCCC[C@@H]2N)nc1Nc1cncc(NC(=O)c2ccccc2)c1 (relative stereo) [Example 26, 6-(cis-2-aminocyclohexylamino)-2-(5-benzoylaminopyridin-3-ylamino)-5-fluoronicotinamide] | ≤ 1000 | –
NC(=O)c1cc(F)c(N[C@@H]2CCCC[C@@H]2N)nc1Nc1cncc(NC(=O)c2ccc(S(=O)(=O)F)cc2)c1 (relative stereo) [Example 027-017, 4-((5-(6-(cis-2-aminocyclohexylamino)-3-carbamoyl-5-fluoropyridin-2-yl)aminopyridin-3-yl)carbamoyl)benzene-1-sulfonyl fluoride] | – | 10 to 50
CNC(=O)c1cc(Nc2nc(N[C@@H]3CCCC[C@@H]3N)c(F)cc2C(N)=O)ccn1 (relative stereo) [Example 29-13, 4-((3-aminocarbonyl-6-(cis-2-aminocyclohexylamino)-5-fluoropyridin-2-yl)amino)-N-methylpyridin-2-carboxamide] | ≤ 1000 | –
NC(=O)c1cc(F)c(N[C@@H]2CCCC[C@@H]2N)nc1Nc1ccc2[nH]c(C(=O)N3CCOCC3)cc2c1 (relative stereo) [Example 029-017, 6-(cis-2-aminocyclohexylamino)-5-fluoro-2-((2-(morpholine-4-carbonyl)-1H-indol-5-yl)amino)nicotinamide] | – | < 10
NC(=O)c1cc(F)c(N[C@@H]2CCCC[C@@H]2N)nc1Nc1cnc2c(NS(=O)(=O)CCl)cccc2c1 (relative stereo) [Example 41-3, 6-(cis-2-aminocyclohexylamino)-2-((8-(2-chloromethylsulphonamide)quinolin-3-yl)amino)-5-fluoronicotinamide] | – | 10 to 50
NC(=O)c1cc(F)c(N[C@@H]2CCCC[C@@H]2N)nc1Nc1cnc2c(NS(=O)(=O)c3cccnc3)cccc2c1 (relative stereo) [Example 41-8, 6-(cis-2-aminocyclohexylamino)-5-fluoro-2-((8-(pyridin-3-sulphonamide)quinolin-3-yl)amino)nicotinamide] | – | 10 to 50
CC(C)(C)C(=O)Nc1cccc2cc(Nc3nc(N[C@@H]4CCCC[C@@H]4N)c(F)cc3C(N)=O)cnc12 (relative stereo) [Example 41-11, 6-(cis-2-aminocyclohexylamino)-5-fluoro-2-((8-pivalamidequinolin-3-yl)amino)nicotinamide] | – | < 10
NC(=O)c1cc(F)c(N[C@@H]2CCCC[C@@H]2N)nc1Nc1cc(O)c2ncccc2c1 (relative stereo) [Example 042-000] | – | < 10
CN1CCN(c2ccc(Nc3nc(NC4CCCCC4N)c(F)cc3C(N)=O)cn2)CC1 (stereo not drawn) [Example 002-021] | – | 10 to 50
Cc1cc(Nc2nc(NC3CCCCC3N)c(F)cc2C(N)=O)cc(C)n1 (stereo not drawn) [Example 002-022] | – | 10 to 50
Cc1ncc(Nc2nc(NC3CCCCC3N)c(F)cc2C(N)=O)cc1-c1ccccc1 (stereo not drawn) [Example 002-023] | – | < 10
NC(=O)c1cc(F)c(NC2CCCCC2N)nc1Nc1cccc2c1cnn2CCN1CCOCC1 (stereo not drawn) [Example 002-027] | – | < 10
NC(=O)c1cc(F)c(NC2CCCCC2N)nc1Nc1cccc2c1cnn2Cc1ccccc1 (stereo not drawn) [Example 002-029] | – | 10 to 50
CCOCCOCCn1cc2c(Nc3nc(NC4CCCCC4N)c(F)cc3C(N)=O)cccc2n1 (stereo not drawn) [Example 002-035] | – | 10 to 50
CC(C)c1cncc(Nc2nc(NC3CCCCC3N)c(F)cc2C(N)=O)c1 (stereo not drawn) [Example 002-039] | – | 10 to 50
COCCn1cc2ccc(Nc3nc(NC4CCCCC4N)c(F)cc3C(N)=O)cc2n1 (stereo not drawn) [Example 002-044] | – | 10 to 50
CCOCCOCCn1cc2ccc(Nc3nc(NC4CCCCC4N)c(F)cc3C(N)=O)cc2n1 (stereo not drawn) [Example 002-045] | – | 10 to 50
NC(=O)c1cc(F)c(NC2CCCCC2N)nc1Nc1ccc2cnn(CC3CC3)c2c1 (stereo not drawn) [Example 002-046] | – | < 10
Cc1ccc(-c2cc(Nc3nc(NC4CCCCC4N)c(F)cc3C(N)=O)ccn2)o1 (stereo not drawn) [Example 002-063] | – | < 10
NC(=O)c1cc(F)c(NC2CCCCC2N)nc1Nc1cncc(-c2cn[nH]c2)c1 (stereo not drawn) [Example 002-069] | – | < 10

Further lines, results first:

IC50 [1] [nM] | IC50 [2] [nM] | SMILES
– | < 10 | NC(=O)c1cc(F)c(N[C@@H]2CCCC[C@@H]2N)nc1Nc1cncc(NC(=O)c2ccno2)c1 (relative stereo) [Example 027-036, N-(5-(6-(cis-2-aminocyclohexylamino)-3-carbamoyl-5-fluoropyridin-2-yl)aminopyridin-3-yl)isoxazole-5-carboxamide]
– | < 10 | Cn1nnc2cc(C(=O)Nc3cncc(Nc4nc(N[C@@H]5CCCC[C@@H]5N)c(F)cc4C(N)=O)c3)ccc21 (relative stereo) [Example 027-042, N-(5-(6-(cis-2-aminocyclohexylamino)-3-carbamoyl-5-fluoropyridin-2-yl)aminopyridin-3-yl)-1-methyl-1H-benzo[d][1,2,3]triazol-5-carboxamide]
≤ 1000 | – | NC(=O)c1cncc(Nc2nc(N[C@@H]3CCCC[C@@H]3N)c(F)cc2C(N)=O)c1 (relative stereo) [Example 28, 2-(5-aminocarbonylpyridin-3-ylamino)-6-(cis-2-aminocyclohexylamino)-5-fluoronicotinamide]
≤ 1000 | – | NC(=O)c1cc(F)c(N[C@@H]2CCCC[C@@H]2N)nc1Nc1cncc(C(=O)O)c1 (relative stereo) [Example 29-1, 5-((3-aminocarbonyl-6-(cis-2-aminocyclohexylamino)-5-fluoropyridin-2-yl)amino)nicotinic acid]
≤ 1000 | – | NC(=O)c1cc(Nc2nc(N[C@@H]3CCCC[C@@H]3N)c(F)cc2C(N)=O)ccn1 (relative stereo) [Example 29-12, 4-((3-aminocarbonyl-6-(cis-2-aminocyclohexylamino)-5-fluoropyridin-2-yl)amino)pyridin-2-carboxamide]
– | < 10 | NC(=O)c1cc(F)c(N[C@@H]2CCCC[C@@H]2N)nc1Nc1ccc2[nH]c(C(=O)NCc3ccccc3)cc2c1 (relative stereo) [Example 029-018, 5-((6-(cis-2-aminocyclohexylamino)-3-carbamoyl-5-fluoropyridin-2-yl)amino)-N-benzyl-1H-indole-2-carboxamide]
– | < 10 | NC(=O)c1cc(F)c(N[C@@H]2CCCC[C@@H]2N)nc1Nc1ccc2[nH]c(C(=O)NCCN3CCOCC3)cc2c1 (relative stereo) [Example 029-019, 5-((6-(cis-2-aminocyclohexylamino)-3-carbamoyl-5-fluoropyridin-2-yl)amino)-N-(2-morpholinoethyl)-1H-indole-2-carboxamide]
– | < 10 | CS(=O)(=O)Nc1cccc2cc(Nc3nc(N[C@@H]4CCCC[C@@H]4N)c(F)cc3C(N)=O)cnc12 (relative stereo) [Example 41-2, 6-(cis-2-aminocyclohexylamino)-5-fluoro-2-((8-(methylsulphonamide)quinolin-3-yl)amino)nicotinamide]
– | 50 to 100 | COc1ccc(S(=O)(=O)Nc2cccc3cc(Nc4nc(N[C@@H]5CCCC[C@@H]5N)c(F)cc4C(N)=O)cnc23)cc1 (relative stereo) [Example 41-5, 6-(cis-2-aminocyclohexylamino)-5-fluoro-2-((8-(4-methoxyphenylsulphonamide)quinolin-3-yl)amino)nicotinamide]
– | 50 to 100 | NC(=O)c1cc(F)c(N[C@@H]2CCCC[C@@H]2N)nc1Nc1cnc2c(NS(=O)(=O)c3ccc(Cl)cc3)cccc2c1 (relative stereo) [Example 41-6, 6-(cis-2-aminocyclohexylamino)-2-((8-(4-chlorophenylsulphonamide)quinolin-3-yl)amino)-5-fluoronicotinamide]
– | < 10 | NC(=O)c1cc(F)c(N[C@@H]2CCCC[C@@H]2N)nc1Nc1cnc2c(NC(=O)c3ccccn3)cccc2c1 (relative stereo) [Example 41-10, 6-(cis-2-aminocyclohexylamino)-5-fluoro-2-((8-picolinamidequinolin-3-yl)amino)nicotinamide]
– | < 10 | COc1cccc(Nc2nc(NC3CCCCC3N)c(F)cc2C(N)=O)c1 (stereo not drawn) [Example 002-006]
– | < 10 | NC(=O)c1cc(F)c(NC2CCCCC2N)nc1Nc1cccc2c1cnn2CCN1CCCC1 (stereo not drawn) [Example 002-026]
– | < 10 | NC(=O)c1cc(F)c(NC2CCCCC2N)nc1Nc1cccc2c1cnn2CC1CC1 (stereo not drawn) [Example 002-028]
– | < 10 | CCOCCOCCn1ncc2c(Nc3nc(NC4CCCCC4N)c(F)cc3C(N)=O)cccc21 (stereo not drawn) [Example 002-031]
– | < 10 | NC(=O)c1cc(F)c(NC2CCCCC2N)nc1Nc1cccc2nn(Cc3ccccc3)cc12 (stereo not drawn) [Example 002-033]
– | < 10 | COCCn1cc2c(Nc3nc(NC4CCCCC4N)c(F)cc3C(N)=O)cccc2n1 (stereo not drawn) [Example 002-034]
– | 50 to 100 | NC(=O)c1cc(F)c(NC2CCCCC2N)nc1Nc1ccc2c(cnn2Cc2ccccc2)c1 (stereo not drawn) [Example 002-036]
– | 10 to 50 | Cc1ncc(Nc2nc(NC3CCCCC3N)c(F)cc2C(N)=O)cc1N1CCCC1 (stereo not drawn) [Example 002-040]
– | 10 to 50 | NC(=O)c1cc(F)c(NC2CCCCC2N)nc1Nc1ccc2cnn(Cc3ccccc3)c2c1 (stereo not drawn) [Example 002-047]
– | 10 to 50 | CCOCCOCCn1ncc2ccc(Nc3nc(NC4CCCCC4N)c(F)cc3C(N)=O)cc21 (stereo not drawn) [Example 002-049]
– | 10 to 50 | NC(=O)c1cc(F)c(NC2CCCCC2N)nc1Nc1ccnc(C(F)(F)F)c1 (stereo not drawn) [Example 002-050]
– | < 10 | NC(=O)c1cc(F)c(NC2CCCCC2N)nc1Nc1ccnc(-c2ccc[nH]2)c1 (stereo not drawn) [Example 002-051]
– | < 10 | NC(=O)c1cc(F)c(NC2CCCCC2N)nc1Nc1ccnc(-c2ccccc2)c1 (stereo not drawn) [Example 002-052]
– | < 10 | CCOc1cc(Nc2nc(NC3CCCCC3N)c(F)cc2C(N)=O)cc(OCC)n1 (stereo not drawn) [Example 002-061]
– | < 10 | Cc1ccc(-c2cncc(Nc3nc(NC4CCCCC4N)c(F)cc3C(N)=O)c2)o1 (stereo not drawn) [Example 002-062]
– | 100 to 1000 | NC(=O)c1cc(F)c(NC2CCCCC2N)nc1Nc1cccn2ccnc12 (stereo not drawn) [Example 002-064]
– | < 10 | NC(=O)c1cc(F)c(NC2CCCCC2N)nc1Nc1ccnc(-c2cn[nH]c2)c1 (stereo not drawn) [Example 002-070]
